Patent US10316017B2, “COT modulators and methods of use thereof” (Gilead Sciences, Inc., priority 2015, dated 2019)
pEC50, pIC50: −log10 of the molar value. Read-outs that look alike come from different tables or passages of the source.

How the values were obtained:
[1] = target: T1, human Cot catalytic domain (30-397 amino acids) (Homo sapiens, UniProt P41279); test: High Throughput Cot Biochemical Assay (KinEASE TR-FRET); conditions: read-out: IC50 HTRF
T1 construct: Purified recombinant human Cot catalytic domain (30-397 amino acids) was purchased from Cama Biosciences; purchased Cama Biosciences (so in the source)
T1 sequence (P41279 30-397): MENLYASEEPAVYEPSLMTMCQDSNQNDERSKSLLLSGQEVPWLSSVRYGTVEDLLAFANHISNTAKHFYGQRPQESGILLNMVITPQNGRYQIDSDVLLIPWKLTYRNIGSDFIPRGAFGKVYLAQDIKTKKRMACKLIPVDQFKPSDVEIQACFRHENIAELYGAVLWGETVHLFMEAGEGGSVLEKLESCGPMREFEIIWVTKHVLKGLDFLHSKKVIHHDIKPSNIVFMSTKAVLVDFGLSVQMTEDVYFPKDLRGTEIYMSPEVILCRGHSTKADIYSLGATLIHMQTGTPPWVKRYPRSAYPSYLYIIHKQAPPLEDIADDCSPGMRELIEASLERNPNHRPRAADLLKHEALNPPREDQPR
How it was run: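 Phosphorylation of 1 μM XL665-STK3 peptide by 5 nM Cot catalytic domain was measured by time-resolved FRET using a europium […] antibody. ATP was 400 μM; buffer was 10 mM MOPS pH 7.0 with Mg2+ and DTT.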

[2] = test system: TNFα production in LPS-stimulated human monocytes; test: Cot Monocyte TNFα Cell Based Assay; conditions: Homo sapiens, Monocyte, read-out: EC50 TNF
How it was run: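 Percent-of-control values derive from TR-FRET ratios of TNFα in spun-down media, referenced to unstimulated and LPS-stimulated wells. Exposure: 1 h compound preincubation, then 50 pg/ml LPS for 4 h, both at 37 °C, with 0.5% final DMSO.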

[3] = Cot KinEASE TR-FRET (HTRF) biochemical assay, 400 μM ATP
[4] = TNFα in LPS-stimulated human monocytes
[5] = Cot KinEASE TR-FRET, 400 μM ATP
[6] = LPS-stimulated human monocytes, TNFα TR-FRET
[7] = Cot biochemical HTRF (KinEASE TR-FRET) assay

Structure (SMILES)	pIC50 [1, 3]	pEC50 [2, 4]	pIC50 [1, 5]	pEC50 [2, 6]	pIC50 [1, 7]
Cc1ccccc1[C@H](Nc1cc(C#N)c2ncc(C#N)c(NCC(C)(C)C)c2c1)c1cn(C2(C#N)CC2)nn1 [Example 1024, (S)-6-(((1-(1-cyanocyclopropyl)-1H-1,2,3-triazol-4-yl)(o-tolyl)methyl)amino)-4-(neopentylamino)quinoline-3,8-dicarbonitrile]	–	–	8.30	7.27	–
[2H][C@](Nc1cc(Cl)c2ncc(C#N)c(NC(C)(C)CO)c2c1)(c1ccc(F)cc1)c1cn(C2CC2)nn1 [Example 173, (S)-8-chloro-6-(((1-cyclopropyl-1H-1,2,3-triazol-4-yl)(4-fluorophenyl)methyl-d)amino)-4-((1-hydroxy-2-methylpropan-2-yl)amino)quinoline-3-carbonitrile]	6.85	5.73	–	–	–
[2H][C@](Nc1cc(Cl)c2ncc(C#N)c(NNC3CCCCC3)c2c1)(c1ccc(F)cc1)c1cn(C2CC2)nn1 [Example 301, (S)-8-chloro-4-(2-cyclohexylhydrazinyl)-6-(((1-cyclopropyl-1H-1,2,3-triazol-4-yl)(4-fluorophenyl)methyl-d)amino)quinoline-3-carbonitrile]	< 5.00	5.91	–	–	–
[2H][C@](Nc1cc(Cl)c2ncc(C#N)c(NC(c3ccccc3)C(C)(C)C)c2c1)(c1ccc(F)cc1)c1cn(C2CC2)nn1 (stereo partly drawn) [Example 307, 8-chloro-6-(((S)-(1-cyclopropyl-1H-1,2,3-triazol-4-yl)(4-fluorophenyl)methyl-d)amino)-4-((2,2-dimethyl-1-phenylpropyl)amino)quinoline-3-carbonitrile]	6.94	6.02	–	–	–
CC(C)(C)C(O)c1cccc([C@H](Nc2cc(Cl)c3ncc(C#N)c(Nc4ccc(F)c(Cl)c4)c3c2)c2cn(C3CCN(C(C)(C)C)CC3)nn2)c1 (stereo partly drawn) [Example 672, 6-(((1S)-(1-(1-(tert-butyl)piperidin-4-yl)-1H-1,2,3-triazol-4-yl)(3-(1-hydroxy-2,2-dimethylpropyl)phenyl)methyl)amino)-8-chloro-4-((3-chloro-4-fluorophenyl)amino)quinoline-3-carbonitrile]	–	6.05	–	–	7.49
[2H][C@](Nc1cc(Cl)c2ncc(C#N)c(Nc3cccc(Cl)c3S(C)(=O)=O)c2c1)(c1ccc(F)cc1)c1cn(C2CC2)nn1 [Example 935, (S)-8-chloro-4-((3-chloro-2-(methylsulfonyl)phenyl)amino)-6-(((1-cyclopropyl-1H-1,2,3-triazol-4-yl)(4-fluorophenyl)methyl-d)amino)quinoline-3-carbonitrile]	–	–	≤ 5.00	≤ 6.00	–
N#Cc1cnc2c(Cl)cc(N[C@@H](c3ccccc3)c3cn([C@@H]4CCN(C5COC5)C[C@H]4O)nn3)cc2c1Nc1ccc(F)c(Cl)c1 [Example 497, 8-chloro-4-((3-chloro-4-fluorophenyl)amino)-6-(((S)-(1-((3R,4R)-3-hydroxy-1-(oxetan-3-yl)piperidin-4-yl)-1H-1,2,3-triazol-yl)(phenyl)methyl)amino)quinoline-3-carbonitrile]	–	6.01	–	–	7.59
CC(C)(C)N1CCC(n2cc([C@@H](Nc3cc(Cl)c4ncc(C#N)c(Nc5ccccc5F)c4c3)c3ccc(Cl)cc3)nn2)CC1 [Example 768, (S)-6-(((1-(1-(tert-butyl)piperidin-4-yl)-1H-1,2,3-triazol-4-yl)(4-chlorophenyl)methyl)amino)-8-chloro-4-((2-fluorophenyl)amino)quinoline-3-carbonitrile]	–	5.60	–	–	7.08
CC[C@@H](Nc1c(C#N)cnc2c(Cl)cc(N[C@H](c3c[nH]nn3)c3ccccc3F)cc12)c1ccccc1 [Example 444, 8-chloro-6-(((S)-(2-fluorophenyl)(1H-1,2,3-triazol-4-yl)methyl)amino)-4-(((R)-1 phenylpropyl)amino) quinoline-3-carbonitrile]	–	6.07	–	–	7.55
Cc1ccccc1[C@H](Nc1cc(Cl)c2ncc(C#N)c(NCC(C)(C)C)c2c1)c1cn(C2(C(F)F)CC2)nn1 [Example 1060, (S)-8-chloro-6-(((1-(1-(difluoromethyl)cyclopropyl)-1H-1,2,3-triazol-4-yl)(o-tolyl)methyl)amino)-4-(neopentylamino)quinoline-3-carbonitrile]	–	–	7.48	6.51	–
Cc1c([C@H](Nc2cc(C#N)c3ncc(C#N)c(NCC(C)(C)C)c3c2)c2cn(C3(C(F)F)CC3)nn2)cccc1-n1cncn1 [Example 1054, (S)-6-(((1-(1-(difluoromethyl)cyclopropyl)-1H-1,2,3-triazol-4-yl)(2-methyl-3-(1H-1,2,4-triazol-1-yl)phenyl)methyl)amino)-4-(neopentylamino)quinoline-3,8-dicarbonitrile]	–	–	9.00	7.09	–
CC(C)(C)N1CCC(n2cc([C@@H](Nc3cc(Cl)c4ncc(C#N)c(N[C@H]5CCCc6ccccc65)c4c3)c3ccccc3)nn2)CC1 [Example 488, 6-(((S)-(1-(1-(tert-butyl)piperidin-4-yl)-1H-1,2,3-triazol-4-yl)(phenyl)methyl)amino)-8-chloro-4-(((S)-1,2,3,4-tetrahydronaphthalen-1-yl)amino)quinoline-3-carbonitrile]	–	5.05	–	–	5.88
[2H][C@](Nc1cc(C#N)c2ncc(C#N)c(NCC(C)(C)C)c2c1)(c1cn(C2(C#N)CC2)nn1)c1ccccc1Cl [Example 1030, 6-(((2-chlorophenyl)(1-(1-cyanocyclopropyl)-1H-1,2,3-triazol-4-yl)methyl-d)amino)-4-(neopentylamino)quinoline-3,8-dicarbonitrile]	–	–	8.30	7.09	–

Second part, the compound after the results:

pIC50 [1, 3]	pEC50 [2, 4]	pIC50 [1, 5]	pEC50 [2, 6]	pIC50 [1, 7]	Structure (SMILES)
7.89	6.42	–	–	–	[2H]C(Nc1cc(Cl)c2ncc(C#N)c(NCC(C)(C)C)c2c1)(c1cn(C(F)(F)CO)nn1)c1ccccc1Cl (centres unmarked) [Compound 26]
–	6.68	–	–	8.22	CC[C@@H](Nc1c(C#N)cnc2c(Cl)cc(N[C@@H](c3ccc(F)cc3)c3cn(C)nn3)cc12)c1ccccc1 [Example 416, 8-chloro-6-(((S)-(4-fluorophenyl)(1-methyl-1H-1,2,3-triazol-4-yl)methyl)amino)-4-(((R)-1-phenylpropyl)amino) quinoline-3-carbonitrile]
–	6.15	–	–	7.77	N#Cc1cnc2c(Cl)cc(N[C@@H](c3ccc(F)cc3)c3cn(C4COC4)nn3)cc2c1Nc1cnc(F)c(F)c1 [Example 511, (S)-8-chloro-4-((5,6-difluoropyridin-3-yl)amino)-6-(((4-fluorophenyl)(1-(oxetan-3-yl)-1H-1,2,3-triazol-4-yl)methyl)amino)quinoline-3-carbonitrile]
–	7.42	–	–	8.52	N#Cc1cnc2c(Cl)cc(N[C@@H](c3ccccc3)c3cn(C4C5CNCC54)nn3)cc2c1Nc1ccc(F)c(Cl)c1 (stereo partly drawn) [Example 577, 6-(((1S)-(1-(3-azabicyclo[3.1.0]hexan-6-yl)-1H-1,2,3-triazo1-4-yl)(phenyl)methyl)amino)-8-chloro-4-((3-chloro-4-fluorophenyl)amino)quinoline-3-carbonitrile]
–	7.14	–	–	8.70	CCN1CC2C(C1)C2n1cc([C@@H](Nc2cc(Cl)c3ncc(C#N)c(Nc4ccc(F)c(Cl)c4)c3c2)c2ccccc2)nn1 (stereo partly drawn) [Example 576, 8-chloro-4-((3-chloro-4-fluorophenyl)amino)-6-(((1S)-(1-(3-ethyl-3-azabicyclo[3.1.0]hexan-6-yl)-1H-1,2,3-triazol-4-yl)(phenyl)methyl)amino) quinoline-3-carbonitrile]
–	6.51	–	–	7.74	CC(C)(C)N1CCC(n2cc([C@@H](Nc3cc(F)c4ncc(C#N)c(Nc5ccc(F)c(Cl)c5)c4c3)c3ccc(Cl)cc3)nn2)CC1 [Example 709, (S)-6-(((1-(1-(tert-butyl)piperidin-4-yl)-1H-1,2,3-triazol-4-yl)(4-chlorophenyl)methyl)amino)-4-((3-chloro-4-fluorophenyl)amino)-8-fluoroquinoline-3-carbonitrile]
–	6.54	–	–	8.05	CCN1CCC(n2cc(C(Nc3cc(Cl)c4ncc(C#N)c(Nc5ccc(F)c(Cl)c5)c4c3)c3ccc(F)cc3C)nn2)CC1 (centres unmarked) [Example 885, 8-chloro-4-((3-chloro-4-fluorophenyl)amino)-6-(((1-(1-ethylpiperidin-4-yl)-1H-1,2,3-triazol-4-yl)(4-fluoro-2-methylphenyl)methyl)amino) quinoline-3-carbonitrile]
7.80	6.22	–	–	–	[2H][C@](Nc1cc(Cl)c2ncc(C#N)c(NC[C@@H](C)c3ccccc3)c2c1)(c1ccc(F)cc1)c1cn(C2CC2)nn1 [Example 226, 8-chloro-6-(((S)-(1-cyclopropyl-1H-1,2,3-triazol-4-yl)(4-fluorophenyl)methyl-d)amino)-4-(((S)-2-phenylpropyl)amino) quinoline-3-carbonitrile]
–	6.44	–	–	7.96	CC(C)(C)N1CCC(n2cc([C@@H](Nc3cc(Cl)c4ncc(C#N)c(Nc5ccc(F)c(F)c5)c4c3)c3ccccc3)nn2)CC1 [Example 787, (S)-6-(((1-(1-(tert-butyl)piperidin-4-yl)-1H-1,2,3-triazol-4-yl)(phenyl)methyl)amino)-8-chloro-4-((3,4-difluorophenyl)amino)quinoline-3-carbonitrile]
